Source: ChEMBL document CHEMBL3885861, “Open TG-GATES”

Species on record: Rattus norvegicus
Assay: Open TG-GATES - Regimen: Daily Repeat
Assay type: toxicity, organism-based, Sprague-Dawley
Set-up: regimen Daily Repeat, gender Male, age 6 weeks
Conditions: in vivo, po, 100 mg/kg, route gavage, dose level Middle; for APTT / Bas / Eos / Fbg / Hb / Ht / Lym / MCH / MCHC / MCV / Mono / Neu / PT / Plat / RBC / Ret / WBC: tissue Blood
[1] = 72 h, tissue Kidney, time 3 day
[2] = 72 h, tissue Plasma, time 3 day

## NNC(=O)c1ccncc1 [ISONIAZID]
72 h, time 3 day
  TERMINAL_BW: 217.2 g
  APTT: 15.8 s
  Bas: 0%
  Eos: 0.6%
  Fbg: 245.2 mg/dL
  Hb: 13.4 g/dL
  Ht: 40.2%
  Lym: 82.2%
  MCH: 21.8 pg
  MCHC: 33.4%
  MCV: 65.2 fL
  Mono: 5%
  Neu: 12.2%
  PT: 12.1 s
  Plat: 115.4 x10_4/uL
  RBC: 616.6 x10_4/ul
  Ret: 7.3%
  WBC: 87 x10_2/uL
[1]
  KIDNEY_L: 1.1 g
  KIDNEY_R: 1.1 g
  KIDNEY_TOTAL: 2.1 g
72 h, tissue Liver, time 3 day
  LIVER: 11.5 g
[2]
  A/G: 1.7
  ALP: 962 IU/L
  ALT: 18.6 IU/L
  AST: 55 IU/L
  BUN: 17.2 mg/dL
  CRE: 0.5 mg/dL
  Ca: 10.9 mg/dL
  Cl: 103.4 meq/L
  DBIL: 0.014 mg/dL
  GLC: 204.2 mg/dL
  IP: 8.6 mg/dL
  K: 5 meq/L
  LDH: 93.4 IU/L
  Na: 140.6 meq/L
  PL: 158.6 mg/dL
  RALB: 3.7 g/dL
  TBIL: 0.3 mg/dL
  TC: 81.4 mg/dL
  TG: 104.6 mg/dL
  TP: 6 g/dL
  gamma-GTP: 1 IU/L
[…], time 7 day
  TERMINAL_BW: 244.8 g
  APTT: 16.2 s
  Bas: 0%
  Eos: 1%
  Fbg: 234.8 mg/dL
  Hb: 13.6 g/dL
  Ht: 40.6%
  Lym: 84.2%
  MCH: 21.2 pg
  MCHC: 33.5%
  MCV: 63.2 fL
  Mono: 6.6%
  Neu: 8.8%
  PT: 12.2 s
  Plat: 121.4 x10_4/uL
  RBC: 641.8 x10_4/ul
  Ret: 6.3%
  WBC: 150.1 x10_2/uL
[…], time 14 day
  TERMINAL_BW: 283.5 g
  APTT: 15.7 s
  Bas: 0%
  Eos: 0.8%
  Fbg: 221.4 mg/dL
  Hb: 13.9 g/dL
  Ht: 41.4%
  Lym: 83.4%
  MCH: 19.7 pg
  MCHC: 33.6%
  MCV: 58.6 fL
  Mono: 4.6%
  Neu: 10.8%
  PT: 12.1 s
  Plat: 125.3 x10_4/uL
  RBC: 706.6 x10_4/ul
  Ret: 5.1%
  WBC: 172.6 x10_2/uL
[…], time 28 day
  TERMINAL_BW: 361.7 g
  APTT: 16.3 s
  Bas: 0%
  Eos: 1.4%
  Fbg: 227.4 mg/dL
  Hb: 14.4 g/dL
  Ht: 42.8%
